{"source": "patent US4073888A", "about": "“Chlorine dioxide and quaternary ammonium salts as sterilizing agents” (priority 1975, dated 1978)", "key": {"[1]": {"test_system": "spores", "test": "effectiveness of quaternary salts with chlorine dioxide", "format": "cell-based", "details": "for results with chlorine dioxide in the testing embodiments: employed with chlorine dioxide; for effectiveness with chlorine dioxide: used with chlorine dioxide for the purposes of the invention"}, "[2]": {"test_system": "spores", "details": "cited from earlier work"}, "[3]": {"details": "solutions; cited from earlier work"}, "[4]": {"test_system": "Bacillus subtilis", "test": "Comparative Sporicidal Test, chlorine dioxide alone", "details": "dilutions 1:10 and 1:25"}, "[5]": {"details": "cited from earlier work"}, "[6]": {"test_system": "Bacillus subtilis", "test": "Comparative Sporicidal Test, didecyl dimethyl ammonium chloride alone", "format": "cell-based, Bacillus subtilis 19659", "details": "ten minutes contact; for Number Positive, Tube 1 (original culture) / Number Positive, Tube 2 (subculture): of 10", "description": "For further comparative purposes it was also decided to test the sporicidal activity of didecyl dimethyl ammonium chloride used alone and employing the bacteria and method described below.\nPorcelain penicylinders (Fisher Scientific #7-907)\nIncubation Time and Temperature\nIn the above Table 4, Tube 1 is the original culture and Tube 2 is the subculture of Tube 1.\nThe active ingredient in these tests was didecyl dimethyl ammonium chloride.\nIn the above Table 4, the identification of the 1% solution and 0.4% solution refers to the level of total quaternary compound being tested."}}, "note": "“Also recorded” adds a separate entry of the source."}
{"compound": "CCCCCCCCCCCC[N+](C)(C)CCCCCCCCCCCC.[Cl-]", "note": "[Didodecyl dimethyl ammonium chloride]", "values": [{"measurement": "results with chlorine dioxide in the testing embodiments", "setting": "[1]", "value": "outstanding results"}, {"measurement": "effectiveness with chlorine dioxide", "setting": "[1]", "value": "highly effective"}]}
{"compound": "[O][Cl+][O-]", "note": "[chlorine dioxide]", "values": [{"measurement": "sporicidal activity", "setting": "[2]; alone in aqueous solutions", "value": "not sporicidal"}, {"measurement": "bactericidal, fungicidal, taste and odor control properties", "setting": "[3]", "value": "excellent bactericidal, fungicidal, and taste and odor control properties"}, {"measurement": "outcome before 21 day observation period", "setting": "[4]", "value": "failed completely"}, {"measurement": "sporicidal activity (conclusion)", "setting": "[4]; 2-12 hours contact", "value": "does not show satisfactory sporicidal activity; also recorded: failure as a sporicide"}, {"measurement": "sporicidal test outcome", "setting": "[4]; twelve hours contact", "value": "not passed"}]}
{"compound": "CCCCCCCCCCCCCCCC[N+](C)(C)C.[Br-]", "note": "[cetyl trimethyl ammonium bromide, reference compound]", "values": [{"measurement": "effectiveness with chlorine dioxide", "setting": "[1]", "value": "ineffective"}]}
{"compound": "CCCCCCCCCCCC(=O)OCCNC(=O)C[n+]1ccccc1", "note": "[lauric acid ester of colaminoformylmethyl pyridinium chloride, reference compound]", "values": [{"measurement": "effectiveness with chlorine dioxide", "setting": "[1]", "value": "ineffective"}]}
{"compound": "O=CCCCC=O", "note": "[glutaraldehyde]", "values": [{"measurement": "time required to kill spores", "setting": "[2]; commercial sporicidal composition", "value": 10, "unit": "h"}, {"measurement": "shelf-life after activation", "setting": "[5]", "value": 14, "unit": "days"}]}
{"compound": "CCCCCCCCCC[N+](C)(C)CCCCCCCCCC.[Cl-]", "note": "[Didecyl Dimethyl Ammonium Chloride, didecyl dimethyl ammonium chloride]", "values": [{"measurement": "Number Positive, Tube 1 (original culture)", "setting": "[6]; 0.4% solution", "value": 0}, {"measurement": "Number Positive, Tube 2 (subculture)", "setting": "[6]; 0.4% solution", "value": 10}, {"measurement": "Number Positive, Tube 1 (original culture)", "setting": "[6]; 1% solution", "value": 0}, {"measurement": "Number Positive, Tube 2 (subculture)", "setting": "[6]; 1% solution", "value": 9}, {"measurement": "sporicidal activity (conclusion)", "setting": "[6]; used alone, 1% and 0.4%", "value": "poor sporicidal activity; also recorded: only a static effect and not a cidal effect; also recorded: not sporicidal"}, {"measurement": "results with chlorine dioxide in the testing embodiments", "setting": "[1]", "value": "outstanding results"}, {"measurement": "effectiveness with chlorine dioxide", "setting": "[1]", "value": "highly effective"}]}
{"compound": "CCCCCCCCCC[N+](C)(C)CCCCCCCC.[Cl-]", "note": "[Octyl-decyl dimethyl ammonium chloride]", "values": [{"measurement": "results with chlorine dioxide in the testing embodiments", "setting": "[1]", "value": "outstanding results"}]}
{"compound": "CCCCCCCCCCCCCCCC[N+](C)(C)Cc1ccccc1.[Cl-]", "note": "[hexadecyldimethyl benzyl ammonium chloride, reference compound]", "values": [{"measurement": "effectiveness with chlorine dioxide", "setting": "[1]", "value": "ineffective"}]}
{"compound": "CCCCCCCCCCCC[N+](C)(C)CCCCCCCC.[Cl-]", "note": "[Octyl-dodecyl dimethyl ammonium chloride]", "values": [{"measurement": "results with chlorine dioxide in the testing embodiments", "setting": "[1]", "value": "outstanding results"}, {"measurement": "effectiveness with chlorine dioxide", "setting": "[1]", "value": "highly effective"}]}
